The source made the active and inactive calls. The calls are words filed in the database; no cut-off is given here.

From ChEMBL document CHEMBL3421625, “Discovery and optimization of novel antagonists to the human neurokinin-3 receptor for the treatment of sex-hormone disorders (Part I)” (J Med Chem, 2015) come the findings set out here.

Data set [1] addresses Kappa-type opioid receptor (Homo sapiens) (UniProt P41145). As to the kind of experiment: Inhibition of KOR (unknown origin) at 10 uM relative to control.
Data set [2] deals with Neuropeptide FF receptor 1 (Homo sapiens) (UniProt Q9GZQ6). As to the kind of experiment: Inhibition of NPFF1 (unknown origin) at 10 uM relative to control.
Data set [3] is described as follows: Apparent permeability across apical to basolateral side in human Caco2 cells in presence of 0.1% bovine serum albumin. Particulars: Caco-2.
Data set [4] can be described thus: Apparent permeability across basolateral to apical side in human Caco2 cells in presence of 0.1% bovine serum albumin. Particulars: Caco-2. Background: Passage across Caco-2 layers is used to estimate intestinal permeability.
Data set [5] relates to Cynomolgus monkey. As to the kind of experiment: In vivo inhibition of NK3R in castrated cynomolgus monkey assessed as decrease in plasma luteinizing hormone level at 20 mg/kg, po measured at 90 mins relative to control. In kind it is functional. The note with it: Macaca fascicularis, 1.5 h.
A short description of data set [6]: Volume of distribution at steady state in castrated cynomolgus monkey at 10 mg/kg, iv by LC-MS/MS analysis. The note with it: male, in vivo.
Data set [7] concerns Cynomolgus monkey. As to the kind of experiment: Unbound Cmax in castrated cynomolgus monkey at 5 mg/kg, po by LC-MS/MS analysis. In kind it is ADME, organism-based, Macaca fascicularis. Also on record: dose 5 mg/kg, route oral. The note with it: in vivo.
For data set [8], the system named is Cynomolgus monkey. The data set is described as follows: Unbound Cmax in castrated cynomolgus monkey at 20 mg/kg, po by LC-MS/MS analysis. Particulars: in vivo. In kind it is ADME, organism-based, Macaca fascicularis. Also on record: dose 20 mg/kg, route oral.
Data set [9] in a line: Total systemic clearance in castrated cynomolgus monkey at 10 mg/kg, iv by LC-MS/MS analysis. The format is ADME, organism-based, Macaca fascicularis. Also on record: dose 10 mg/kg, route intravenous. The note with it: male, in vivo.
The nature of data set [10]: Tmax in castrated cynomolgus monkey at 20 mg/kg, po by LC-MS/MS analysis. In kind it is ADME, organism-based, Macaca fascicularis. Also on record: dose 20 mg/kg, route oral. Particulars: male, in vivo.
For data set [11], the system named is Cynomolgus monkey. As to the kind of experiment: Unbound AUC in castrated cynomolgus monkey at 20 mg/kg, po by LC-MS/MS analysis. The format is ADME, organism-based, Macaca fascicularis. Also on record: dose 20 mg/kg, route oral. The note with it: in vivo.
For data set [12], the system named is Cynomolgus monkey. The data set is described as follows: Unbound AUC in castrated cynomolgus monkey at 5 mg/kg, po by LC-MS/MS analysis. In kind it is ADME, organism-based, Macaca fascicularis. Also on record: dose 5 mg/kg, route oral. Particulars: in vivo.
The test system of data set [13] is Cynomolgus monkey. The data set is described as follows: Unbound AUC in castrated cynomolgus monkey at 10 mg/kg, iv by LC-MS/MS analysis. The format is ADME, organism-based, Macaca fascicularis. Also on record: dose 10 mg/kg, route intravenous. The note with it: in vivo.
A short description of data set [14]: Tmax in castrated cynomolgus monkey at 5 mg/kg, po by LC-MS/MS analysis. In kind it is ADME, organism-based, Macaca fascicularis. Also on record: dose 5 mg/kg, route oral. The note with it: male, in vivo.
Data set [15] has as its system Rattus norvegicus. The data set is described as follows: Hepatotoxicity in Sprague-Dawley rat assessed as effect on AST level at 30 mg/kg, po bid administered for 5 days. In kind it is toxicity, organism-based. Also on record: dose 30 mg/kg, route oral. Particulars: in vivo, 120 h.
Data set [16] deals with Rattus norvegicus. As to the kind of experiment: Hepatotoxicity in Sprague-Dawley rat assessed as effect on bilirubin level at 30 mg/kg, po bid administered for 5 days. Also on record: dose 30 mg/kg, route oral. The note with it: in vivo, 120 h. The format is toxicity, organism-based.
In data set [17] the test system is Cynomolgus monkey. The data set is described as follows: In vivo inhibition of NK3R in castrated cynomolgus monkey assessed as decrease in plasma luteinizing hormone level at 20 mg/kg, po measured at 90 to 300 mins. The format is functional, organism-based. The note with it: Macaca fascicularis. Also on record: dose 20 mg/kg.
For data set [18], the system named is Cynomolgus monkey. As to the kind of experiment: In vivo inhibition of NK3R in castrated cynomolgus monkey assessed as decrease in plasma luteinizing hormone level at 20 mg/kg, po measured at 480 mins. The format is functional, organism-based. The note with it: Macaca fascicularis. Also on record: dose 20 mg/kg.
Data set [19] concerns the target Voltage-gated inwardly rectifying potassium channel KCNH2 (Homo sapiens, UniProt Q12809).
Description: Inhibition of human ERG expressed in HEK293 cells after 5 mins by patch-clamp assay
The target of a further data set is T1, Substance-K receptor (Homo sapiens, UniProt P21452).
T1 sequence (P21452 whole entry): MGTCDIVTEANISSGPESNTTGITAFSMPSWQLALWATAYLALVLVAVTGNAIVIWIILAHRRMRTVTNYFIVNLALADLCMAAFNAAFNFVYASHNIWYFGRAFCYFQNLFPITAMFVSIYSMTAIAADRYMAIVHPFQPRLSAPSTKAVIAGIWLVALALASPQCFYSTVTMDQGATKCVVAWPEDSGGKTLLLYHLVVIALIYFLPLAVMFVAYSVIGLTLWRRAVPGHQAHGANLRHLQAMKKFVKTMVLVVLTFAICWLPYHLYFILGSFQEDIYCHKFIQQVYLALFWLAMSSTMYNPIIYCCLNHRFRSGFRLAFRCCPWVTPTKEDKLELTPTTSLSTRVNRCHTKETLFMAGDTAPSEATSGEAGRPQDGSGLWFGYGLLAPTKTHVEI
As to the kind of experiment: Displacement of [125I]-neurokinin A from human NK2R after 90 mins by scintillation counting analysis. A general note: In a radioligand displacement assay an active substance lowers the binding of a labelled ligand.

Data set [20] relates to Rattus norvegicus. As to the kind of experiment: In vivo inhibition of NK3R in castrated Sprague-Dawley rat assessed as decrease in serum luteinizing hormone level at 10 mg/kg, iv by radioimmunoassay relative to control. The format is functional.
Data set [21] concerns the target T2, Neuromedin-K receptor (Homo sapiens, UniProt P29371).
T2 sequence (P29371 whole entry): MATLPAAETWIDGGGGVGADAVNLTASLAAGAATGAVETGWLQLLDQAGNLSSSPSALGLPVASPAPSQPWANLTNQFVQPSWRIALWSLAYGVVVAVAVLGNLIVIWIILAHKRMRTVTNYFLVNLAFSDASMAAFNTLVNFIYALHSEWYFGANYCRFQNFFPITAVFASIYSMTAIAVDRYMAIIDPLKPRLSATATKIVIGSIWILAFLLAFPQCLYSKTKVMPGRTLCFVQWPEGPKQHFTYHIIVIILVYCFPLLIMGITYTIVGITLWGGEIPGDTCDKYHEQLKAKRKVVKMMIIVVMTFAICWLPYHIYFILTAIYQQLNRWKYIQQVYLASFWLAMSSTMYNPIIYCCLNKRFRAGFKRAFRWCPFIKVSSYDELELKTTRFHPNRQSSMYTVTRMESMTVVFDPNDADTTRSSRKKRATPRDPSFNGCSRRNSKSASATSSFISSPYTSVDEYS

In another data set the target is Substance-P receptor (Homo sapiens, UniProt P25103).
The nature of data set [22]: in vivo. Particulars: Sprague-Dawley, rat, iv, 1 mg/kg.
Data set [23] can be described thus: in vivo. The note with it: Sprague-Dawley, rat, po, 3 mg/kg.
For data set [24], the target named is T2, Neuromedin-K receptor. The data set is described as follows: biochemical.
Description: Displacement of [3H]-SB222200 from recombinant human NK3R expressed in CHO cell membranes after 90 mins by scintillation counting analysis

Chain of Voltage-gated inwardly rectifying potassium channel KCNH2 (Q12809 whole entry): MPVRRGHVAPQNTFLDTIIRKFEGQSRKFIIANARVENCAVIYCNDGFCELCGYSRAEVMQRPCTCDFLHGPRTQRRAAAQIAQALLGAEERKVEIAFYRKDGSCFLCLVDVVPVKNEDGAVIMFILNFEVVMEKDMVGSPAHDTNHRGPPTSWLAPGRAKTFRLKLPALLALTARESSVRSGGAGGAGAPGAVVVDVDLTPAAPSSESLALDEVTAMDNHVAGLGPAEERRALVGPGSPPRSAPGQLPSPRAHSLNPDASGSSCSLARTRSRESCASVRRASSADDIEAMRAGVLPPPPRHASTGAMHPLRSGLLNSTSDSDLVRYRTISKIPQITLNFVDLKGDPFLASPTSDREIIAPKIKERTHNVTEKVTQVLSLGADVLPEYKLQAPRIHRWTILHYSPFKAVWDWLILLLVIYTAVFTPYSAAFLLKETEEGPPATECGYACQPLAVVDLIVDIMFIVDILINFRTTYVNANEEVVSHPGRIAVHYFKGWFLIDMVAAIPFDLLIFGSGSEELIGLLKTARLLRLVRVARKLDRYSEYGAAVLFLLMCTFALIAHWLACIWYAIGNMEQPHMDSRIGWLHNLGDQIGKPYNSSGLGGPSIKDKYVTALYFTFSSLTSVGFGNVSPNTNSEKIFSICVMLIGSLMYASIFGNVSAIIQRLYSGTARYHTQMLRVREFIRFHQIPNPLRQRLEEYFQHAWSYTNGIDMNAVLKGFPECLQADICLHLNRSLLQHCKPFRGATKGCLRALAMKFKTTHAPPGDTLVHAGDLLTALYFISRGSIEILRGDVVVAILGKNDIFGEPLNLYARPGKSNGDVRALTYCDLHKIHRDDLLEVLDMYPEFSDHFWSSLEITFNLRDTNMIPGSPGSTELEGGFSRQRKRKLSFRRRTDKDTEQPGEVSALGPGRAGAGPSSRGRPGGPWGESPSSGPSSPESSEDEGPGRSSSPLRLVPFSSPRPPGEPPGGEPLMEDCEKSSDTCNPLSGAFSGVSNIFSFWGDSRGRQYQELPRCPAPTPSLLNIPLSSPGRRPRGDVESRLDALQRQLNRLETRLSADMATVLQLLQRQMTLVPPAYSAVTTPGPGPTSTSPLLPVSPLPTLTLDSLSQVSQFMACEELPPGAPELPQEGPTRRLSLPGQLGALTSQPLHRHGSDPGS
Chain of Kappa-type opioid receptor (Homo sapiens) (P41145 whole entry): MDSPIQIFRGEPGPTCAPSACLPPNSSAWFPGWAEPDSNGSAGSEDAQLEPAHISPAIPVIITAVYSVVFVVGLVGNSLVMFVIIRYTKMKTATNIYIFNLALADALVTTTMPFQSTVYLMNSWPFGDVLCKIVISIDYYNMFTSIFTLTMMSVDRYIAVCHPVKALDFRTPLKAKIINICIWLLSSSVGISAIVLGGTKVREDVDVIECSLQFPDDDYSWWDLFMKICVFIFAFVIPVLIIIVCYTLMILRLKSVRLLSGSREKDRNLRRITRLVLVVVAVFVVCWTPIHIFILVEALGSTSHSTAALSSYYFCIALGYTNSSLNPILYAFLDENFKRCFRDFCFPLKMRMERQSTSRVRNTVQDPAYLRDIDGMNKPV
Chain of Substance-P receptor (P25103 whole entry): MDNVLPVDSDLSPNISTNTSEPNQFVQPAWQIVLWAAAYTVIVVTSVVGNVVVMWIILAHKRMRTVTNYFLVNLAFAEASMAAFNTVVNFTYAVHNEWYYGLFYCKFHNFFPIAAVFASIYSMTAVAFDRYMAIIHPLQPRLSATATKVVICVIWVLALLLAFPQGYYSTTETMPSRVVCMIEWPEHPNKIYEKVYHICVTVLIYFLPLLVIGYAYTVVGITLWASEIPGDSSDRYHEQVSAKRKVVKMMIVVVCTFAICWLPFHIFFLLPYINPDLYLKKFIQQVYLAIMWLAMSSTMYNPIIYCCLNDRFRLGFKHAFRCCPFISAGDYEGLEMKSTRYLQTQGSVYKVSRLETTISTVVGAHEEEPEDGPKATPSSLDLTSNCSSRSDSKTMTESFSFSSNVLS
Chain of Neuropeptide FF receptor 1 (Homo sapiens) (Q9GZQ6 whole entry): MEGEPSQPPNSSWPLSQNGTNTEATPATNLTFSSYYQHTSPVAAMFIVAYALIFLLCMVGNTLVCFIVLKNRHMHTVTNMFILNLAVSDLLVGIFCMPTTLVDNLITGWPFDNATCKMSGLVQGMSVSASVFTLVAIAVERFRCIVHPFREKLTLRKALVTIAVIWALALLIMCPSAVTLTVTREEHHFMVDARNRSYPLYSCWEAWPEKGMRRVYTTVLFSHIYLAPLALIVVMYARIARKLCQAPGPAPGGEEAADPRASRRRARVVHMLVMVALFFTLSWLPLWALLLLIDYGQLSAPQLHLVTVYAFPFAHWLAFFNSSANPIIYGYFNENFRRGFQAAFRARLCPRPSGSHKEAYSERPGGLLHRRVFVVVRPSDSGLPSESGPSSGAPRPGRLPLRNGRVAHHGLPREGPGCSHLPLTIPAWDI
Description for Substance-P receptor: Displacement of [3H]-Substance P from human NK1R after 90 mins by scintillation counting analysis

As usually defined, the inhibition is the percentage by which the read-out fell short of the control. Usually Papp A→B stands for the apparent permeability from the apical to the basolateral side of a cell layer. As a reminder, the Papp B→A is the apparent permeability from the basolateral to the apical side of a cell layer. Usually inhibition in vivo stands for the change of the read-out against control, counted positive when it falls. By Vd is commonly meant a proportionality between amount in the body and measured concentration, not a real space. The term clearance denotes the volume of plasma or blood freed of the substance per unit of time. One may read the Tmax as the time from dosing to the highest level. As usually defined, the IC50 is the concentration at which inhibition is half-maximal. `Cc1nc(-c2nnc3n2CCN(C(=O)c2ccc(-c4cccs4)cc2)[C@@H]3C)cs1`: the inhibition in data set [1] worked out at 25%; in [2] it was 18%. For the same molecule, the Papp A→B in data set [3] is 48.2 ×10⁻⁶ cm/s. Moreover, the Papp B→A in data set [4] was 52.9 ×10⁻⁶ cm/s. In addition, in the data set on Cynomolgus monkey [5], the inhibition in vivo at 20 mg/kg was 40%. Further, the Vd in data set [6] was 1.52 L/kg. The fCmax worked out at 17.9 nM in the data set with Cynomolgus monkey [7] and 237 nM with Cynomolgus monkey [8]. In data set [9], this molecule had a clearance of 16.5 mL/min/kg. Also, the Tmax in [10] is 1 h; in data set [14], 1.5 h. Further, the fAUC in the data set with Cynomolgus monkey [11] was 526 nM·h; with Cynomolgus monkey [12], 64.6 nM·h; in the data set on Cynomolgus monkey [13], 1055 nM·h. In addition, the Activity result in the data set with Rattus norvegicus [15] and in the data set with Rattus norvegicus [16] was “Non-toxic” each time. Further, the inhibition entry in the data set with Cynomolgus monkey [17] is “Active”. Moreover, in the data set with Cynomolgus monkey [18], the inhibition result was “inactive”. The 50% inhibitory concentration (IC50) in [19] was determined as 24 µM.
The term Ki denotes the equilibrium dissociation constant of an inhibitor or competing ligand from its target. The term half-life denotes how long it takes for the measured level to halve. As usually defined, the bioavailability is the share of a dose that reaches the circulation, judged against a reference dose that is usually intravenous. As for `C[C@@H]1c2nnc(-c3csc(-c4ccc(F)cc4F)n3)n2CCN1C(=O)c1ccc(-c2cccs2)cc1`, the Ki on Substance-K receptor is 794 nM; on Substance-P receptor it was 1260 nM; on Neuromedin-K receptor [24], 2 nM. In addition, the inhibition in vivo at 10 mg/kg in the data set with Rattus norvegicus [20] was 50%. Further, the IC50 against Neuromedin-K receptor [21] is 20 nM. Also, the half-life in the data set “in vivo [22]” came out at 321 min. In “in vivo [23]”, the bioavailability came to 17%.
